Reference: paper PMC8279484 (Journal of Medicinal Chemistry, 2021)

Assays:
[1] = tested on: THP-1 LUCIA monocytes; assay: Extrinsic cytotoxicity: LDH release after LPS challenge; format: cell-based, human; conditions: for % LDH release relative to LPS: LPS 24 h
Method: We investigated the potential cytotoxicity of all candidate sLXms by assaying LDH release.[50] The response to LPS was arbitrarily set to 100%, and values were expressed relative to this. As previously reported by others, LPS provokes LDH release.[51] […] Ultimately, untreated cells defined the spontaneous cell release thresholds.
Lactate dehydrogenase (LDH) was assayed in cell supernatants to investigate possible cytotoxicity of the lead compound. LDH is rapidly released into the culture medium after disruption of the plasma membrane.[67],[69] After 24 h of exposure to sLXms, vehicle, or controls, followed by LPS stimulation, as described above, THP-1-Lucia NF-κB-cell supernatants were collected and LDH was assayed. Cytotoxicity was evaluated relative to vehicle controls. Maximum releasable LDH was determined in cells lysed with 2% Triton-X-100 (Sigma-Aldrich, Ireland). LDH levels were assessed by reading the absorbance at 490 nm (protein) and 690 nm (background noise), using a spectrophotometer (SPECTRAMAX M2, Molecular Devices (U.K.) Limited).

[2] = tested on: C57BL/6J mice; assay: Murine zymosan-induced peritonitis; format: in vivo, mouse; conditions: peritoneal lavage, n = 5 mice
Method: Male C57BL/6J mice of 9 weeks of age were purchased from Charles River (Kent, U.K.) and were housed in a specific pathogen-free facility in individually ventilated and filtered cages under positive pressure. Peritonitis was induced in mice by ip injection of zymosan (purchased from Sigma-Aldrich; 1 mg per mouse in 0.5 mL of phosphate-buffered saline (PBS)).[73] Mice were treated with dexamethasone (1 μg/g) purchased from Sigma-Aldrich 1 h prior to zymosan injection or (R)-6 (2 and 6 ng/g) (200 μL IP) 30 min prior to zymosan injection. Peritoneal cells were collected by lavage 4 h after injection of zymosan. The local Animal Use and Care Committee and The UK Home Office approved the animal experiments in accordance with the derivatives of both The Home Office Guidance on the Operation of Animals (Scientific Procedures) Act 1986 and The Guide for the Care and Use of Laboratory Animals of the National Research Council.
Surface marker expression on peritoneal cells was assessed by flow cytometry with data collection on a FACSCalibur (Becton Dickinson). Data were analyzed with FlowJo analysis software (Treestar Inc.). Cells were stained with AlexaFluor488 conjugated anti-F4/80 (clone BM8; eBioscience); APC conjugated anti-CD11b (clone M1/70; eBioscience) and Pacific blue conjugated anti-Ly6G (clone 1A8; BioLegend) antibodies. Prior to surface staining, peritoneal cells were counted manually (Neubauer chamber) with Turks solution. Using appropriate fluorescence minus one (FMO) controls, quadrants were drawn, and data were plotted on logarithmic-scale density- or dot-plots.

[3] = tested on: NF-κB; assay: TNF-α-induced NF-κB reporter (pNF-κB-SEAP) assay in vSMCs; format: cell-based, mouse; conditions: (R)-6 1 nM, TNF-α 1 ng/mL 24 h; TNF-α alone 5-fold
Method: Mouse primary vascular SMCs were cultured at 37 °C in a humidified atmosphere of 95% air/5% CO2 and maintained in Dulbecco’s modified Eagle’s medium (DMEM; Life Technologies) supplemented with 25 mmol/L glucose with 10% (v/v) FBS. For treatments, media contained only 1% FBS.
NF-κB activity was determined by measuring secreted alkaline phosphatase in the culture supernatant using the SEAP Reporter Gene Assay System (Roche Australia). Cell experiments were performed six to eight times, and the values presented are the mean ± SEM from independent experiments.

[4] = tested on: NF-κB; parameters: method as in PMID 30213823; conditions: LXA4 1 0.1 nM; 2 1 nM; cited from earlier work

SMILES	attenuation of LPS-induced toxicity (LDH) ([1]; LPS 50 ng/mL, 24 h, 1 pM–1 μM)	% LDH release relative to LPS ([1]; highest dose of (R)-6)	% LDH release relative to LPS ([1]; lowest dose of (R)-6)	Total no of PMNs ([2]; (R)-6 2 μg/kg ip (low dose) + zymosan 40 mg/kg)	Total no of PMNs ([2]; (R)-6 6 μg/kg ip (high dose) + zymosan 40 mg/kg)	NF-κB activity, fold change relative to vehicle [3]	effect on TNF-α-stimulated NF-κB activity [4]
CCCCC[C@@H](O)c1nc2ccccc2nc1/C=C/[C@@H](O)[C@@H](O)CCCC(=O)OC [(R)-6, Methyl (5S,6R,E)-5,6-Dihydroxy-8-(3-((R)-1-hydroxyhexyl)quinoxalin-2-yl)oct-7-enoate]	1.3- to 2.4 fold	77 ± 10%	42 ± 4%	4.4 ± 1.1 × 10^6/mL	3.2 ± 0.7 × 10^6/mL	3 fold	–
CCCCC[C@H](O)/C=C/C=C\C=C\C=C\[C@@H](O)[C@@H](O)CCCC(=O)O [Compound 1, LXA4]	–	–	–	–	–	–	reduced TNF-α-stimulated NF-κB activity
